Each structure is given as a SMILES string.

T1 sequence (P13612 34-1032): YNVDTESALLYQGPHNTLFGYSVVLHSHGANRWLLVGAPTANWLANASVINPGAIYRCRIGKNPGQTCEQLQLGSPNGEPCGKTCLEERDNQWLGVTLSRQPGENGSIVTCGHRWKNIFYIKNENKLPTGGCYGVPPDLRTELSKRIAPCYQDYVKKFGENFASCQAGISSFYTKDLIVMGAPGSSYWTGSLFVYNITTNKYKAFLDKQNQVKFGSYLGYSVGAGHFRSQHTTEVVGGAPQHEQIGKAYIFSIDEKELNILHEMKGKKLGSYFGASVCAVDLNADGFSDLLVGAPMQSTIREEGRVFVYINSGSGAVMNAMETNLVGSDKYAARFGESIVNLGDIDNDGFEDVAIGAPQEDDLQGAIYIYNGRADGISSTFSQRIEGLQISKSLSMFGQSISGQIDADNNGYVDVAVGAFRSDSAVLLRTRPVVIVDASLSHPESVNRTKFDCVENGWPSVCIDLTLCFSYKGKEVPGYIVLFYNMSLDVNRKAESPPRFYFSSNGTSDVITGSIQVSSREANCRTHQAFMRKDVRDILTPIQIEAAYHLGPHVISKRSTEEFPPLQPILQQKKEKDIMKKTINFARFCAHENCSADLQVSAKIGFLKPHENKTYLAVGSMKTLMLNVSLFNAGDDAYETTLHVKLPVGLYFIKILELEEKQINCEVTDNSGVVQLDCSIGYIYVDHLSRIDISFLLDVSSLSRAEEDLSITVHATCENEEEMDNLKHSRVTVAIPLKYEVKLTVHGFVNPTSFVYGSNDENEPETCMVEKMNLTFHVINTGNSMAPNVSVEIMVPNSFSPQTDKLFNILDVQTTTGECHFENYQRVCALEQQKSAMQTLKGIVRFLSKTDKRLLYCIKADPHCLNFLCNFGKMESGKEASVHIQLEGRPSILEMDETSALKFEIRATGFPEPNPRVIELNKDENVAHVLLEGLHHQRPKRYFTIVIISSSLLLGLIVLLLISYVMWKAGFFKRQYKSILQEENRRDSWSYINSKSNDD
T1 sequence (P05556 21-798): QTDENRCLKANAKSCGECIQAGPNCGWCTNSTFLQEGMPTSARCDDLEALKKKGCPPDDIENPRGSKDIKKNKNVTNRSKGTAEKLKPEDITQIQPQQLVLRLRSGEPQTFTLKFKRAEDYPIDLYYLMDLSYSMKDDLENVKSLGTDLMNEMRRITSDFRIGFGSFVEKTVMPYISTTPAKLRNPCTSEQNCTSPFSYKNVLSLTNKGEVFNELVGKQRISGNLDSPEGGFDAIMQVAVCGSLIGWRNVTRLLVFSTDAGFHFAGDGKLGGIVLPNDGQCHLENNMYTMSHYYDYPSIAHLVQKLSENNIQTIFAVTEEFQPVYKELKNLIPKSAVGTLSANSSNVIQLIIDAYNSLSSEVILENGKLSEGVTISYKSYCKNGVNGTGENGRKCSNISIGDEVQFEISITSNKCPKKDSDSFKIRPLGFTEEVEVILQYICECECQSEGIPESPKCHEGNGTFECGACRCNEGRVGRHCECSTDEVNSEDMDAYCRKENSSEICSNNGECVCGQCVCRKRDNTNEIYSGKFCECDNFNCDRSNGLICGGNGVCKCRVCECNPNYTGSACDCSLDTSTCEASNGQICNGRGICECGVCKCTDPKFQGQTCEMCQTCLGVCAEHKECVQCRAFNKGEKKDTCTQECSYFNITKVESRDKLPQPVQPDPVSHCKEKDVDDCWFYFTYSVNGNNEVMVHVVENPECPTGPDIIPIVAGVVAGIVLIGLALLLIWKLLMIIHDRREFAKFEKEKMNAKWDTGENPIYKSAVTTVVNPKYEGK

This experiment has as its target T1, VLA4 (Homo sapiens, UniProt P05556+P13612).
T1 construct: endogenous in cells; host or cells: Ramos cells
Put plainly: Inhibition of VLA4-dependent adhesion to BSA-CS1 (labelled Ramos cells). The experiment is classed as cell-based. The conditions noted are these: binding of BCECF-AM labelled Ramos cells to CS1 peptide-coated wells, 2 mM MnCl2, 30 minutes at room temperature; IC50 range. The text has this:
For example, the cell adhesion inhibitory activity of these compounds may be measured by determining the concentration of inhibitor required to block the binding of VLA-4-expressing cells to fibronectin- or CS1-coated plates. In this assay microtiter wells are coated with either fibronectin (containing the CS-1 sequence) or CS-1. If CS-1 is used, it must be conjugated to a carrier protein, such as bovine serum albumin, in order to bind to the wells. Once the wells are coated, varying concentrations of the test compound are then added together with appropriately labelled, VLA-4-expressing cells. Alternatively, the test compound may be added first and allowed to incubate with the coated wells prior to the addition of the cells. The cells are allowed to incubate in the wells for at least 30 minutes. Following incubation, the wells are emptied and washed. Inhibition of binding is measured by quantitating the fluorescence or radioactivity bound to the plate for each of the various concentrations of test compound, as well as for controls containing no test compound.
VLA-4-expressing cells that may be utilized in this assay include Ramos cells, Jurkat cells, A375 melanoma cells, as well as human peripheral blood lymophocytes (PBLs). The cells used in this assay may be fluorescently or radioactively labelled.
This assay was used to assess the potency of VLA4-directed inhibitory compounds of this invention.
We dissolved BSA-SMCC (Pierce Chemical, Rockford, Ill.; Catalog # 77115) in H2O at a concentration of 10 mg/mL. [SEQ ID NO:4]: […](“Cys-Tyr-CS1 peptide”), which we synthesized by conventional solid phase chemistry and purified by HPLC, was dissolved in 10 mM HEPES pH 5, 50 mM NaCl and 0.1 mM EDTA also at a concentration of 10 mg/mL. We then mixed 500 μL of BSA-SMCC, 250 μL of Cys-Tyr-CS1 peptide and 75 μL of […] and allowed the conjugation reaction to proceed for 30 minutes. We stopped the reaction by adding 1 μL of beta-mercaptoethanol. Samples were analyzed for cross-linking by SDS-PAGE. This reaction produced multiple molecules of the Cys-Tyr-CS1 peptide conjugate to each BSA molecule.
We coated the wells of a Linbro titertek polystyrene 96-well flat bottom plate (Flow Laboratories, Maclean, Va.; catalog #76-231-05) with 100 μL of the above-described BSA-CS1 solution diluted to 1 μg/mL in 0.05 M NaHCO3 (15 mM NaHCO3, 35 mM Na2CO3) pH 9.2. Some wells were not coated with CS1 in order to assess non-specific cell binding (NSB). The plate was then incubated overnight at 4° C.
Following this incubation, the contents of the wells were removed by inverting and blotting the plate. All of the wells were then blocked with 100 μL of 1% BSA in PBS, 0.02% NaN3, for a minimum of one hour at room temperature.
3. Preparation of Fluorescently Labelled Ramos Cells Ramos cells are grown, maintained and labelled in RPMI 1640 culture medium containing 1% BSA. Just prior to running the assay, we added 2′,7′-bis-(2-carboxyethyl)5 (and -6) carboxyfluorescein acetoxymethyl ester (“BCECF-AM”; Molecular Probes Inc., Eugene, Oreg.; catalog #B-1150) to a final concentration of 2 μM to a culture of Ramos cells (4×10^6 cells/mL). We incubated the cells for 20 minutes at 37° C.
Following labelling, the cells were washed twice in assay buffer (24 mM TRIS, 137 mM NaCl, 2.7 mM KCl, pH 7.4, containing 0.1% BSA and 2 mM glucose) to remove any cations originating from the culture medium. The cells were then resuspended in assay buffer to 4×10^6 cells/mL and 2 mM MnCl2 was added to upregulate VLA4 on the surface of the cells.
Immediately prior to running the assay, we removed the BSA blocking solution from the 96-well plates and washed the wells with 100 μL of assay buffer. We then added to each well 25 μL of test cell adhesion inhibitory compound at 2× the final concentration and 25 μL of the labelled Ramos cells. Final concentrations were selected across a range of anticipated IC50s, usually between 0.01 nM–10 μM. […]
As a reminder, the IC50 is the midpoint of a concentration-inhibition curve. With `CC(C)CC(NC(=O)CCCCCNC(=O)Nc1ccccc1)C(=O)NC(CC(=O)O)c1ccccc1` (centres unmarked) [compound 1106], the IC50 is more than 10 µM. The compound `CC(C)CC(NC(=O)C1(c2ccccc2)CC1)C(=O)NC(CC(=O)O)c1ccccc1` (centres unmarked) [compound 1017] showed a concentration for half-maximal inhibition (IC50) of more than 10 µM. Then `COc1ccc(CC(=O)NC(CC(C)C)C(=O)NC(CC(=O)O)c2ccccc2)cc1` (centres unmarked) [compound 1092], with more than 10 µM; and `CC(C)CC(NC(=O)Cc1ccc(C(F)(F)F)cc1)C(=O)NC(CC(=O)O)c1ccccc1` (centres unmarked) [compound 1011], with more than 10 µM; and `CC(C)CC(C(=O)NC(CC(=O)O)c1ccccc1)N(C)C(=O)Cc1ccc(NC(=O)Nc2ccccc2)cc1` (centres unmarked) [compound 1053], with 0.05 to 10 µM.

Take `CCNC(=O)Nc1ccc(CC(=O)NC(CC(C)C)C(=O)NC(CC(=O)O)c2ccc3c(c2)OCO3)cc1` (centres unmarked) [compound 1077]: the half-inhibitory concentration (IC50) fell in the range of 0.05 to 10 µM. Next, `CC(C)CC(NC(=O)CCc1ccc(NC(=O)Nc2ccccc2)cc1)C(=O)NC(CC(=O)O)c1ccccc1` (centres unmarked) [compound 1052]: 0.05 to 10 µM; `CC(C)CC(NC(=O)Cc1ccc(NC(=O)c2ccccc2N)cc1)C(=O)NC(CC(=O)O)c1ccccc1` (centres unmarked) [compound 1028]: 0.05 to 10 µM; `CC(C)CC(NC(=O)OCc1ccccc1)C(=O)NC(CC(=O)O)c1cccnc1` (centres unmarked) [compound 1153]: more than 10 µM. Next, `CC(C)CC(NC(=O)CCCCCNC(=O)NC(C)(C)C)C(=O)NC(CC(=O)O)c1ccccc1` (centres unmarked) [compound 1107]: more than 10 µM. Next, `CCCC(NC(=O)Cc1ccccc1)C(=O)NC(CC(=O)O)c1ccccc1` (centres unmarked) [compound 1038]: more than 10 µM. As for `O=C(O)CC(NC(=O)C(CC(=O)N1CCOCC1)NC(=O)Cc1ccc(NC(=O)Nc2ccccc2)cc1)c1ccc2c(c1)OCO2` (centres unmarked) [compound 1170], the IC50 was in the range of 0.05 to 10 µM. Next, `CSCCC(NC(=O)Cc1ccc(NC(=O)Nc2ccccc2)cc1)C(=O)NC(CC(=O)O)c1ccccc1` (centres unmarked) [compound 1135]: less than 0.05 µM; `CC(C)CC(NC(=O)Cc1ccccc1NC(=O)c1ccccc1)C(=O)NC(CC(=O)O)c1ccccc1` (centres unmarked) [compound 1026]: more than 10 µM; `CCc1ccccc1NC(=O)Nc1ccc(CC(=O)NC(CC(C)C)C(=O)NC(CC(=O)O)c2ccc3c(c2)OCO3)cc1` (centres unmarked) [compound 1200]: 0.05 to 10 µM. `CC(C)CC(NC(=O)Cc1ccccc1)C(=O)NC(CC(=O)O)c1ccc(Cl)cc1` (centres unmarked) [compound 1115] returned a 50% inhibitory concentration (IC50) of 0.05 to 10 µM. For the compound `CC(C)CC(NC(=O)Cc1cccnc1)C(=O)NC(CC(=O)O)c1ccccc1` (centres unmarked) [compound 1005], the half-maximal inhibitory concentration (IC50) is more than 10 µM. The compound `CC(C)CC(NC(=O)Cc1ccc(NC(=O)c2ccccc2)cc1)C(=O)NC(CC(=O)O)c1ccccc1` (centres unmarked) [compound 1105] showed a concentration for half-maximal inhibition (IC50) of 0.05 to 10 µM.

Compound `CC(C)CC(NC(=O)Cc1ccc(O)cc1)C(=O)NC(CC(=O)O)Cc1ccccc1` (centres unmarked) [compound 1143] came in with an IC50 of more than 10 µM. Next, `COc1ccc(C(CC(=O)O)NC(=O)C(CC(C)C)NC(=O)Cc2ccc(NC(=O)Nc3ccccc3)cc2)cc1OC` (centres unmarked) [compound 1196]: less than 0.05 µM; `COc1ccc(CC(NC(=O)Cc2ccccc2)C(=O)NC(CC(=O)O)c2ccccc2)cc1` (centres unmarked) [compound 1122]: more than 10 µM; `O=C(O)CC(NC(=O)C(Cc1ccccc1)NC(=O)Cc1ccc(NC(=O)Nc2ccccc2)cc1)c1ccc2c(c1)OCO2` (centres unmarked) [compound 1129]: 0.05 to 10 µM. In turn, `COc1ccc(C(CC(=O)O)NC(=O)C(CCSC)NC(=O)Cc2ccc(NC(=O)Nc3ccccc3)cc2)cc1` (centres unmarked) [compound 1089] yielded a half-maximal inhibitory concentration (IC50) of less than 0.05 µM.

`CN=C(Nc1ccccc1)Nc1ccc(CC(=O)NC(CC(C)C)C(=O)NC(CC(=O)O)c2ccc3c(c2)OCO3)cc1` (centres unmarked) [compound 1380] had an IC50 of 0.05 to 10 µM. Next, `O=C(O)CC(NC(=O)C(COCc1ccccc1)NC(=O)Cc1ccccc1)c1ccccc1` (centres unmarked) [compound 1126]: more than 10 µM; `CC(C)CC(NC(=O)Cc1ccncc1)C(=O)NC(CC(=O)O)c1ccccc1` (centres unmarked) [compound 1007]: more than 10 µM; `NCC(NC(=O)Cc1ccc(NC(=O)Nc2ccccc2)cc1)C(=O)NC(CC(=O)O)c1ccccc1` (centres unmarked) [compound 1138]: 0.05 to 10 µM. `COc1cc(CC(=O)NC(CC(C)C)C(=O)NC(CC(=O)O)c2ccc3c(c2)OCO3)ccc1NC(=O)Nc1ccccc1Cl` (centres unmarked) [compound 1222] showed an IC50 of less than 0.05 µM. Then `CC(C)CC(NC(=O)C1CCc2ccccc21)C(=O)NC(CC(=O)O)c1ccccc1` (centres unmarked) [compound 1189], with more than 10 µM. `CC(C)CC(NC(=O)Cc1ccc(NC(=O)NC2CCCCC2)cc1)C(=O)NC(CC(=O)O)c1ccc2c(c1)OCO2` (centres unmarked) [compound 1068] came in with an IC50 of 0.05 to 10 µM. `CC(C)CC(NC(=O)Cc1ccccc1NC(=O)OCc1ccccc1)C(=O)NC(CC(=O)O)c1ccccc1` (centres unmarked) [compound 1027] yielded an IC50 of more than 10 µM. Then `C#CCN(C)C(=O)CC(NC(=O)Cc1ccc(NC(=O)Nc2ccccc2)cc1)C(=O)NC(CC(=O)O)c1ccc2c(c1)OCO2` (centres unmarked) [compound 1177], with 0.05 to 10 µM; and `CC(C)CC(NC(=O)Cc1ccc(NC(=O)OCc2ccccc2)cc1)C(=O)NC(CC(=O)O)c1ccc2c(c1)OCO2` (centres unmarked) [compound 1073], with 0.05 to 10 µM; and `COc1ccc(C(CC(=O)O)NC(=O)C(CCSC)NC(=O)Cc2ccc(NC(=O)Nc3ccccc3C)cc2)cc1OC` (centres unmarked) [compound 1224], with less than 0.05 µM.

Consider `Cc1ccccc1NC(=O)Nc1ccc(CC(=O)NC(CC(C)C)C(=O)NC(CC(=O)O)c2ccc3c(c2)OCCO3)cc1` (centres unmarked) [compound 1210], for which the IC50 is less than 0.05 µM. Next, `O=C(O)CC(NC(=O)C(CCN1CCOCC1)NC(=O)Cc1ccc(NC(=O)Nc2ccccc2)cc1)c1ccc2c(c1)OCO2` (centres unmarked) [compound 1191]: 0.05 to 10 µM. Next, `CC(C)CC(NC(=O)Cc1ccc(O)c([N+](=O)[O-])c1)C(=O)NC(CC(=O)O)c1ccccc1` (centres unmarked) [compound 1112]: more than 10 µM. For `CC(C)CC(NC(=O)Cc1ccc([N+](=O)[O-])cc1)C(=O)NC(CC(=O)O)c1ccccc1` (centres unmarked) [compound 1093], the IC50 is more than 10 µM.

For `CC(C)CC(NC(=O)Cc1ccc(NC(=O)NCc2ccccc2)cc1)C(=O)NC(CC(=O)O)c1ccc2c(c1)OCO2` (centres unmarked) [compound 1169], the 50% inhibitory concentration (IC50) fell in the range of 0.05 to 10 µM. `COc1ccc(C(CC(=O)O)NC(=O)C(CC(C)C)NC(=O)Cc2ccc(NC(=O)Nc3ccccc3C(C)C)cc2)cc1` (centres unmarked) [compound 1207] displayed an IC50 of more than 10 µM.

Consider `CC(C)CC(NC(=O)Cc1ccc(-c2ccccc2)cc1)C(=O)NC(CC(=O)O)c1ccccc1` (centres unmarked) [compound 1009], for which the half-inhibitory concentration (IC50) is more than 10 µM.

In turn, `CC(C)CC(NC(=O)Cc1ccc(NC(=O)N2CCOCC2)cc1)C(=O)NC(CC(=O)O)c1ccc2c(c1)OCO2` (centres unmarked) [compound 1198] returned an IC50 of more than 10 µM. Next, `CC(C)CC(NC(=O)Cc1ccc(NC(=O)Nc2ccccc2[N+](=O)[O-])cc1)C(=O)NC(CC(=O)O)c1ccc2c(c1)OCO2` (centres unmarked) [compound 1201]: 0.05 to 10 µM; `O=C(O)CC(NC(=O)C(CSCc1ccccc1)NC(=O)Cc1ccccc1)c1ccccc1` (centres unmarked) [compound 1127]: 0.05 to 10 µM. Then `COc1ccccc1NC(=O)Nc1ccc(CC(=O)NC(CC(C)C)C(=O)NC(CC(=O)O)c2ccc3c(c2)OCO3)cc1` (centres unmarked) [compound 1079], with less than 0.05 µM.

As to `COc1ccccc1C(CC(=O)O)NC(=O)C(CC(C)C)NC(=O)Cc1ccccc1` (centres unmarked) [compound 1159], the 50% inhibitory concentration (IC50) was more than 10 µM. Next, `CC(C)CC(NC(=O)Cc1ccccc1N)C(=O)NC(CC(=O)O)c1ccccc1` (centres unmarked) [compound 1024]: more than 10 µM.
